Laboratory results reported in publication PMC6502639 (Nature protocols, 2018).
Like-named read-outs stand apart in the source and are kept apart here.

Assays:
patient cardiac function = settings: patients; abbreviations in table footnote; ref Table S1 in Sharma et al. 10; cited from earlier work
hiPSC-CMs [1] = settings: cited from earlier work; for hiPSC-CM cytotoxicity (in words): hiPSC-CMs
hiPSC-CMs [2] = system: hiPSC-CMs
hiPSC-CMs [3] = settings: cited from earlier work
hiPSC-CMs [4] = settings: cited from earlier work; remark: listed apart in the source
hiPSC-CMs [5] = settings: cited from earlier work; remark: listed apart in the source
[6] = concentration at which 50% loss in hiPSC-CM viability is observed, 72 h
[7] = 0 to 1, average of normalized CoB and LD50 corrected by Cmax, without EC or AE

Structure (SMILES) | Clinically reported cardiotoxicity (patient cardiac function) | LD50 (hiPSC-CMs [1]) | Normalized CSI-Lite (CSINLITE) (hiPSC-CMs [2]; human) | Normalized CSI (CSIN) (hiPSC-CMs [3]) | LD50 (hiPSC-CMs [1]; [6]) | Normalized CSI-Lite (CSINLITE) (hiPSC-CMs [2]; [7]) | hiPSC-CM contractility alteration (in words) (hiPSC-CMs [4]) | Effect on hiPSC-CM action potential / electrophysiology (in words) (hiPSC-CMs [5]) | hiPSC-CM cytotoxicity (in words) (hiPSC-CMs [1])
CN(C)C/C=C/C(=O)Nc1cc2c(Nc3ccc(F)c(Cl)c3)ncnc2cc1O[C@H]1CCOC1 [Afatinib] | None | 12.30 µM | 0.515 | 0.444 |  |  |  |  | 
COc1cc2nccc(Oc3ccc(NC(=O)C4(C(=O)Nc5ccc(F)cc5)CC4)cc3)c2cc1OC [Cabozantinib] | None^b |  | 1.000 | 0.769 |  |  |  |  | 
CC(C)(C)c1nc(-c2cccc(NS(=O)(=O)c3c(F)cccc3F)c2F)c(-c2ccnc(N)n2)s1 [Dabrafenib] |  |  |  | 0.459 | 100.68 µM | 0.561 |  |  | 
CNC(=O)c1cc(Oc2ccc(NC(=O)Nc3ccc(Cl)c(C(F)(F)F)c3)c(F)c2)ccn1 [Regorafenib] | MI, Hy^b |  |  | 0.010 | 7.10 µM | 0.010 |  |  | 
Cc1ccc(Nc2nccc(N(C)c3ccc4c(C)n(C)nc4c3)n2)cc1S(N)(=O)=O [Pazopanib] | QT, LV (rare)^b |  |  | 0.671 |  | 1.000 |  |  | 
CS(=O)(=O)CCNCc1ccc(-c2ccc3ncnc(Nc4ccc(OCc5cccc(F)c5)c(Cl)c4)c3c2)o1 [Lapatinib] | LV, QT^b |  | 0.190 | 0.209 | 100.76 µM |  |  |  | 
Cc1cn(-c2cc(NC(=O)c3ccc(C)c(Nc4nccc(-c5cccnc5)n4)c3)cc(C(F)(F)F)c2)cn1 [Nilotinib] | QT, LV, Vas^a | 29.00 µM | 0.148 |  |  |  |  |  | 
COc1cccc2c1C(=O)c1c(O)c3c(c(O)c1C2=O)C[C@@](O)(C(=O)CO)C[C@@H]3O[C@H]1C[C@H](N)[C@H](O)[C@H](C)O1 [Doxorubicin] | HF, LV^a |  | 0.008 | 0.010 | 0.78 µM |  |  |  | 
COc1cc2c(Nc3ccc(Br)cc3F)ncnc2cc1OCC1CCN(C)CC1 [Vandetanib] | QT, TdP, SCD, HF, Hy^a |  |  | 0.041 | 20.60 µM | 0.056 | elicited arrhythmias and alterations in hiPSC-CM contractility | caused changes in hiPSC-CM electrophysiology and action potential duration | 
CNC(=O)c1cc(Oc2ccc(NC(=O)Nc3ccc(Cl)c(C(F)(F)F)c3)cc2)ccn1 [Sorafenib] | QT, LV, HF, MI, Hy | 3.40 µM | 0.003 | 0.004 |  |  |  |  | highly cytotoxic to hiPSC-CMs
CCN(CC)CCNC(=O)c1c(C)[nH]c(/C=C2\C(=O)Nc3ccc(F)cc32)c1C [Sunitinib] | HF, LV, MI, QT, Hy^b | 12.70 µM | 0.292 | 0.218 |  |  |  |  | 
COc1cc(Nc2c(C#N)cnc3cc(OCCCN4CCN(C)CC4)c(OC)cc23)c(Cl)cc1Cl [Bosutinib] |  |  |  |  | 12.39 µM | 0.423 |  |  | 
Cc1ccc(C(=O)Nc2ccc(CN3CCN(C)CC3)c(C(F)(F)F)c2)cc1C#Cc1cnc2cccnn12 [Ponatinib] |  |  |  |  | 4.30 µM | 0.225 |  |  | 
Cc1nc(Nc2ncc(C(=O)Nc3c(C)cccc3Cl)s2)cc(N2CCN(CCO)CC2)n1 [Dasatinib] | QT, PE, Hy |  | 0.599 | 0.524 | 42.00 µM |  |  |  | 
CNC(=O)c1ccccc1Sc1ccc2c(/C=C/c3ccccn3)n[nH]c2c1 [Axitinib] | HF (rare), Hy |  | 1.000 | 1.000 |  |  | does not substantially alter |  | does not substantially alter
C=CC(=O)N1CCC[C@@H](n2nc(-c3ccc(Oc4ccccc4)cc3)c3c(N)ncnc32)C1 [Ibrutinib] |  |  | 0.580 | 0.507 |  |  |  |  | 
C[C@@H](Oc1cc(-c2cnn(C3CCNCC3)c2)cnc1N)c1c(Cl)ccc(F)c1Cl [Crizotinib] | QT, Brady | 8.60 µM |  | 0.063 |  | 0.067 |  |  | 
C#Cc1cccc(Nc2ncnc3cc(OCCOC)c(OCCOC)cc23)c1 [Erlotinib] | MI (rare) | 87.60 µM | 0.570 | 0.653 |  |  |  |  | 
COc1cc2ncnc(Nc3ccc(F)c(Cl)c3)c2cc1OCCCN1CCOCC1 [Gefitinib] | None |  |  |  |  |  |  |  | 
CC(=O)Nc1cccc(-n2c(=O)n(C3CC3)c(=O)c3c(Nc4ccc(I)cc4F)n(C)c(=O)c(C)c32)c1 [Trametinib] |  |  | 1.000 |  | 66.80 µM |  |  |  | 
CCCS(=O)(=O)Nc1ccc(F)c(C(=O)c2c[nH]c3ncc(-c4ccc(Cl)cc4)cc23)c1F [Vemurafenib] |  |  |  | 0.003 | 32.10 µM | 0.002 |  |  | 
